Assay results published in patent publication US20240368131A1, “OXOINDOLINYL AMIDE DERIVATIVES FOR INHIBITING NLRP3 AND USES THEREOF” (VENTUS THERAPEUTICS U.S. INC., priority 2022, published 2024).

Assays:
Type in all cases: cell-based
mouse NLRP3 = molecular target: T1, mouse NLRP3 (Mus musculus, UniProt Q8R4B8); experiment: Mouse Whole Blood (mWB) NLRP3 Assay (IL-1β MSD); settings: CD1 mouse whole blood, LPS 1 μg/mL 5 h, ATP 5 mM; class symbols
T1 construct: Blood was drawn from female CD1 mice (9 to 10 weeks) by cardiac puncture; from tissue; host or cells: whole blood of female CD1 mice, LPS-primed, ATP-stimulated
Experimental: Reagents: The following reagents were used: blood collection tubes (Heparin); U-bottom 96-well tissue culture (Falcon 353077); HBSS for LPS, ATP and compound dilutions (Gibco 24020-117); and LPS, E. coli serotype 026:B6 (Sigma L-2654).
Mouse IL-1b MSD assay: Blood was drawn from female CD1 mice (9 to 10 weeks) by cardiac puncture. Blood was plated (135 μL) per well in 96-well U-bottom plates. 7.5 μL of 20× LPS (20 μg/mL, final concentration of 1 μg/mL) was added and mixed by gentle pipetting, and the mixture was incubated in a TC incubator for five hours. 7.5 μL of 20× compound or vehicle per well was added and mixed by gentle pipetting. Compounds were diluted 1/50 in HBSS to prepare a 20× dilution curve in 2% DMSO. The mixture was incubated for 30 minutes in a TC incubator with shaking (450 rpm). 5 μl of 31× ATP (155 mM, final concentration of 5 mM) was added and mixed by gentle pipetting. The mixture was incubated in a TC incubator for 30 minutes with shaking (450 rpm). The plate was centrifuged for 10 minutes at 800×g and ˜70 μL of plasma was removed. Plasma was frozen if required. Mouse IL-1b was analyzed with IL-1b MSD assay (K152TUK). […]
mWB IL-1β Assay: A represents an IC50 value <0.3 μM; B represents an IC50 value ≥0.3 μM and <0.5 μM; C represents an IC50 value ≥0.5 μM and <1.0 μM; D represents an IC50 value ≥1.0 μM.

human NLRP3 [1] = molecular target: T2, human NLRP3 (Homo sapiens, UniProt Q96P20); experiment: Human PBMC NLRP3 Assay (IL-1β release); parameters: Human PBMCs (Normal): iXCells Cat #10HU-003; host or cells: human PBMCs (normal donors), LPS-primed, nigericin-stimulated; settings: human PBMCs
Experimental: Reagents: Human PBMCs (Normal): iXCells Cat #10HU-003; RPMI 1640 medium (ATCC modification): ThermoFisher Cat #A1049101 (Complete Media: 10% FBS, 1% Pen/Strep; Assay Media: 1% Pen/Strep; 75 cm^2 cell culture flask: Corning Cat #430641U; 96-well cell culture plates: VWR Cat #10062-900; LPS (E. coli 026:B6): Sigma Cat #L2654, stock 5 mg/mL in PBS; Nigericin sodium salt: Sigma Cat #N7143, stock 5 mg/mL (6.7 mM) in ethanol.
Cryopreserved PBMCs (10×10^6 cells/vial) were rapidly thawed in a 37° C. water bath for 2 min and transferred in 10 mL Complete Media. Cells were then centrifuged at 1200 RPM for 5 min, resuspended in 40 mL of Complete Media, transferred in a 75 cm^2 cell culture flask and incubated overnight at 37° C. with 5% CO2. The next day, PBMCs were centrifuged, resuspended in 30 mL Assay Media (˜3.3×10^5 cells/mL) and distributed at 100 μL/well in a 96-well cell culture plate. 50 μl of Assay Media containing 300 ng/ml of LPS was then added to each well except for the untreated control wells (50 μl Assay Media without LPS). Cells were then primed with LPS for 4 h at 37° C. with 5% CO2. A concentration response curve (CRC) was prepared of 500× test compound in 100% dimethyl sulfoxide (DMSO). The CRC was then diluted 1:25 in Assay Media and then further diluted 1:5 in Assay Media resulting in a final 4× CRC in 0.8% DMSO/Assay Media. 50 μL/well of 4× test compound CRC or vehicle (0.8% DMSO/Assay Media) was then transferred into each well and subsequently incubated for 30 min at 37° C. with 5% CO2. Cells were stimulated by adding 4 μL of 500 μM Nigericin, for 1 h at 37° C. with 5% CO2 Plates were then centrifuged at 1200 RPM for 5 min and 100 μl of the media was transferred to a clean 96-well storage plate and stored at −80° C. until analyzed. Cytokine measurements were performed using the mesoscale platform. Compounds were added 30 minutes before priming the cells with LPS when TNFα was required to be quantified in the cytokine panel to confirm selectivity.
Human PBMC NLRP3 Assay: A represents an IC50 value <0.3 μM; B represents an IC50 value ≥0.3 μM and <0.5 μM; C represents an IC50 value ≥0.5 μM and <1.0 μM; D represents an IC50 value >1.0 μM and <10 μM; E represents an IC50 value >10 μM.

human NLRP3 [2] = molecular target: T2, human NLRP3; experiment: Human Whole Blood (hWB) NLRP3 Assay (IL-1β MSD); settings: LPS 1 μg/ml 4.5 h, ATP 30 min, class symbols
Experimental: Human whole blood was drawn from healthy volunteers after obtaining written informed consent. Heparin lithium coated tubes were used to collect blood from volunteers. Blood samples were distributed on 96 well plates using 90 μl per well. Priming was performed by adding 5 μl of LPS (O26:B6; Sigma L-2654) at a final concentration of 1 μg/ml for 4.5 hours in a humidified incubator with 37° C., 5% CO2. Thirty minutes prior to NLRP3 activation, 5 μl of a 20× compound solution or vehicle (2% DMSO) was added to each well and plates were incubated on a shaker (450 rpm) in a humidified incubator with 37° C., 5% CO2. Activation was then performed by adding 3.3 μl of a 31× ATP solution per well. At the end of the 30 minutes stimulation, the plates were centrifuged (800 g, 10 min, room temperature) and the plasma from each well was frozen at −80° C. IL-1β levels in the supernatant were analyzed using a mesoscale discovery assay (MSD K151TUK) according to the manufacturers' instructions.
hWB IL-1β Assay: A represents an IC50 value <0.3 μM; B represents an IC50 value ≥0.3 μM and <0.5 μM; C represents an IC50 value ≥0.5 μM and <1.0 μM; D represents an IC50 value >1.0 μM.

[3] = LPS priming 4 h, nigericin stimulation 1 h, class symbols
[4] = LPS priming, nigericin stimulation, numeric values of Tables C1-C4

T2 sequence (Q96P20 whole entry): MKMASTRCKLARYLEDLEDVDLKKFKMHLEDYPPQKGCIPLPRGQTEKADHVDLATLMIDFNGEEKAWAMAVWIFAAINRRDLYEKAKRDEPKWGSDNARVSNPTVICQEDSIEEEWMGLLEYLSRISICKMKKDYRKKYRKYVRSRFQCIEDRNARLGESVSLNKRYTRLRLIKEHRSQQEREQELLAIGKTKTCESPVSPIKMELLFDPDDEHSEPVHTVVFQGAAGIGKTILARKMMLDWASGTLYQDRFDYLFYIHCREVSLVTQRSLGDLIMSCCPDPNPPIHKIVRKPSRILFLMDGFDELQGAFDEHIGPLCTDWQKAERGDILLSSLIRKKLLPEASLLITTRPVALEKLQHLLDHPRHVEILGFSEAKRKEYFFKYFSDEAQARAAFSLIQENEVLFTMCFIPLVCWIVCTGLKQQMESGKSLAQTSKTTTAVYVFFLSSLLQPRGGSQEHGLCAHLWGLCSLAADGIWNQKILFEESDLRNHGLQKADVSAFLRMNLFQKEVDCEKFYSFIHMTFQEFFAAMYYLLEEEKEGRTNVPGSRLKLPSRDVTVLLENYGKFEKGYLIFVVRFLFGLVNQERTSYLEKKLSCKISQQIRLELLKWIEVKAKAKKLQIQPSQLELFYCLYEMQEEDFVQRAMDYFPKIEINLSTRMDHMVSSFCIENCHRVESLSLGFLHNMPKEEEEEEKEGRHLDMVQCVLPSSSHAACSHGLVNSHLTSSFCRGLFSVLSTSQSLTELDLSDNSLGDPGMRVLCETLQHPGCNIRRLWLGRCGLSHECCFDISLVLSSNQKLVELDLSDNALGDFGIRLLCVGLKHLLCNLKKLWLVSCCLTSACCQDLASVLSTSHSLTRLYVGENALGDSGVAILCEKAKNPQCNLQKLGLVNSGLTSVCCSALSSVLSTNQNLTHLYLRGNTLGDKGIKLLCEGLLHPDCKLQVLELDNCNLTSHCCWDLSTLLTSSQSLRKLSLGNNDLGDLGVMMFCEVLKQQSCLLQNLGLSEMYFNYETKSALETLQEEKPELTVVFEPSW
T1 sequence (Q8R4B8 whole entry): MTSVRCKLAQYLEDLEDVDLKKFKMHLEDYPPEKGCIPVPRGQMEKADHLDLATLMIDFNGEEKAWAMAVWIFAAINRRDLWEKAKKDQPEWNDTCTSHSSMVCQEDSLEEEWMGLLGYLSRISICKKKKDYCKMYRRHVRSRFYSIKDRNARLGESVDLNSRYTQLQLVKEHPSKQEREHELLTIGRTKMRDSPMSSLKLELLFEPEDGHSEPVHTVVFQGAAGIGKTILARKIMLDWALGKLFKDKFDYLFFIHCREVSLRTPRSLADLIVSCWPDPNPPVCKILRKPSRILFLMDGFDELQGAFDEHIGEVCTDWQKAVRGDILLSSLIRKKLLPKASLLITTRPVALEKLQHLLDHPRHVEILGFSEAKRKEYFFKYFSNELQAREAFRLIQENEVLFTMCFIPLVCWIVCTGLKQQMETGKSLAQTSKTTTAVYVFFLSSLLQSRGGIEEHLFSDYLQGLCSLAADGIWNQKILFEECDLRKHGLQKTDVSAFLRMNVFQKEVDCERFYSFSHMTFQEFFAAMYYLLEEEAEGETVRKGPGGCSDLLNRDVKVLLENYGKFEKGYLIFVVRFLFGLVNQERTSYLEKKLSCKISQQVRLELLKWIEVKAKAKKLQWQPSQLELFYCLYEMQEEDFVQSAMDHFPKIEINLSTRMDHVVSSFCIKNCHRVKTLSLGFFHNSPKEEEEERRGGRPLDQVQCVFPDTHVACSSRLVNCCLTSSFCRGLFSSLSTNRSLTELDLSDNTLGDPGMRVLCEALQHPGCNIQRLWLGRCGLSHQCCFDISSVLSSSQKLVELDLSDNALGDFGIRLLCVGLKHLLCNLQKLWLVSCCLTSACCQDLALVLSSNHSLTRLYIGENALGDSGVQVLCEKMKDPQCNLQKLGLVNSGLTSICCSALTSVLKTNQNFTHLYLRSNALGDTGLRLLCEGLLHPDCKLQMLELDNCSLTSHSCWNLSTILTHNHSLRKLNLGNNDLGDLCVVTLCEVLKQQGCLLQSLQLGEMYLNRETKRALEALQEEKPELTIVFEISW

Structure (SMILES) | IC50 (mouse NLRP3) | IC50 (human NLRP3 [1]; [3]) | IC50 (human NLRP3 [2]) | IC50 (human NLRP3 [1]; [4])
CC1(C)C(=O)N(CC(=O)NCCCc2nnn[nH]2)c2ccc(Br)cc21 [Compound 1, N-(3-(1H-tetrazol-5-yl)propyl)-2-(5-bromo-3,3-dimethyl-2-oxoindolin-1-yl)acetamide] | < 300 nM | < 300 nM | > 1000 nM | 
CC1(C)C(=O)N(CC(=O)NCCCC(=O)O)c2ccc(Br)cc21 [Compound 2, 4-(2-(5-bromo-3,3-dimethyl-2-oxoindolin-1-yl)acetamido)butanoic acid] | < 300 nM | < 300 nM | > 1000 nM | 150 nM
CC1(C)C(=O)N(CC(=O)NCCCC(=O)O)c2c(O)cc(Br)cc21 [Compound 16, 4-(2-(5-bromo-7-hydroxy-3,3-dimethyl-2-oxoindolin-1-yl)acetamido)butanoic acid] | 500 to 1000 nM | < 300 nM | 500 to 1000 nM | 
CC1(C)C(=O)N(CC(=O)NCCCC(=O)O)c2ccc(C3CC3)c(F)c21 [Compound 56, 4-(2-(5-cyclopropyl-4-fluoro-3,3-dimethyl-2-oxoindolin-1-yl)acetamido)butanoic acid] | < 300 nM | < 300 nM | 500 to 1000 nM | 46 nM
CC1(C)C(=O)N(CC(=O)NCCCC(=O)O)c2c(F)cc(C3CC3)c(F)c21 [Compound 57, 4-(2-(5-cyclopropyl-4,7-difluoro-3,3-dimethyl-2-oxoindolin-1-yl)acetamido)butanoic acid] | < 300 nM | < 300 nM | 300 to 500 nM | 59 nM
C[C@@H](CCC(=O)O)NC(=O)CN1C(=O)C(C)(C)c2c(F)c(C3CC3)cc(F)c21 [Compound 59A, (S)-4-(2-(5-cyclopropyl-4,7-difluoro-3,3-dimethyl-2-oxoindolin-1-yl)acetamido)pentanoic acid] | < 300 nM | < 300 nM | 300 to 500 nM | 
CC1(C)C(=O)N(CC(=O)NC[C@H](F)CC(=O)O)c2ccc(C3CC3)c(F)c21 [Compound 63A, (R)-4-(2-(5-cyclopropyl-4-fluoro-3,3-dimethyl-2-oxoindolin-1-yl)acetamido)-3-fluorobutanoic acid] | < 300 nM | < 300 nM | 500 to 1000 nM | 
CC1(C)C(=O)N(CC(=O)NC[C@H](F)CC(=O)O)c2c(F)cc(C(F)(F)F)c(F)c21 [Compound 64A, (R)-4-(2-(4,7-difluoro-3,3-dimethyl-2-oxo-5-(trifluoromethyl)indolin-1-yl)acetamido)-3-fluorobutanoic acid] | < 300 nM | < 300 nM | 500 to 1000 nM | 
CC1(C)C(=O)N(CC(=O)NCCCc2nnn[nH]2)c2c(F)cc(C3CC3)c(F)c21 [Compound 65, N-(3-(1H-tetrazol-5-yl)propyl)-2-(5-cyclopropyl-4,7-difluoro-3,3-dimethyl-2-oxoindolin-1-yl)acetamide] | < 300 nM | < 300 nM | 500 to 1000 nM | 15 nM
CC1(C)C(=O)N(CC(=O)NCCCC(=O)O)c2c(F)cc(C3CC3)cc21 [Compound 66, 4-(2-(5-cyclopropyl-7-fluoro-3,3-dimethyl-2-oxoindolin-1-yl)acetamido)butanoic acid] | < 300 nM | < 300 nM | < 300 nM | 24 nM
